Here are results for 11 compounds from article PMC9851200, “Multiparameter phenotypic screening for endogenous TFEB and TFE3 translocation identifies novel chemical series modulating lysosome function” (Autophagy, 2022).

Where two headings read alike, the source gives them in different places.

For data set [1], the system named is SH-SY5Y cells. In words: AK (adenylate kinase) release ToxiLight cytotoxicity assay. Also: reference of the scale not given here.
The subject of data set [2] is endogenous TFE3. The data set is described as follows: TFE3 nuclear translocation, immunocytochemistry high-content imaging. The format is cell-based.
Data set [3] relates to SH-SY5Y cells.
Text: The PKIS2 Library was supplied by The Structural Genomics Consortium at the University of North Carolina at Chapel Hill.
For data set [4], the system named is SH-SY5Y cells. The data set is described as follows: Nuclear count from microscopy images (cellular growth and toxicity). Also: reference of the scale not given here.
The test system of data set [5] is endogenous TFEB. The data set is described as follows: TFEB nuclear translocation, immunocytochemistry high-content imaging. The format is cell-based.
The mark [6] stands for this setting: PKIS2 primary screening, DQ Red BSA intensity.
The mark [7] stands for this setting: PKIS2 primary screening, DQ Red BSA spot count.
For DQ Intensity in this document: reference of the scale not given here.
For DQ Spot in this document: reference of the scale not given here.

Regarding `CCn1c(-c2nonc2N)nc2cncc(CNC3CCNCC3)c21.Cl` [UNC10225211A], in data set [1] (PKIS2 primary screening), the AK is 88.65. The compound further gave a TFE3 % in data set [2] (PKIS2 primary screening) of 12.65%. Moreover, in data set [3] (PKIS2 primary screening), the “DQ Intensity” value is on record as 95.76 and the “DQ Spot” value came to 101.16. In data set [4] (PKIS2 primary screening), the “Nuclear Count” value came out at 84.35. The compound also registered a TFEB % in data set [5] (PKIS2 primary screening) of 4.17%.
`Nc1ncnc2c1ncn2-c1cccc2ccccc12` [UNC10225410A]: the AK in data set [1] (PKIS2 primary screening) stood at 106.56. Also, in data set [2] (PKIS2 primary screening), the TFE3 % came to 8.71%. For the same compound, in data set [3] (PKIS2 primary screening), the “DQ Intensity” value was found to be 80.92 and the “DQ Spot” value stood at 97.35. Besides, the “Nuclear Count” value in data set [4] (PKIS2 primary screening) is recorded as 88.30. The compound further had a TFEB % in data set [5] (PKIS2 primary screening) of 7.46%.
`COc1cc(Nc2ccnc3ccc(C(F)(F)F)cc23)cc(OC)c1OC` [UNC10225109A] registered an AK in data set [1] (PKIS2 primary screening) of 98.24. Besides, in data set [2] (PKIS2 primary screening), the TFE3 % worked out at 7.95%. Also, in data set [3] (setting [6]), the “DQ Intensity” value is 93.31. Further, the “DQ Spot” value in data set [3] (setting [7]) worked out at 111.66. Moreover, the “Nuclear Count” value in data set [4] (PKIS2 primary screening) came out at 107.71. The compound also came in with a TFEB % in data set [5] (PKIS2 primary screening) of 5.89%.
For the compound `CNc1nc(-c2ccc3c(N)n[nH]c3c2)cc(N2C[C@@H](C(=O)NC3CCCCC3)OC[C@H]2C)n1` [GSK2375584], the AK in data set [1] (PKIS2 primary screening) is recorded as 76.99. In data set [2] (PKIS2 primary screening), this compound had a TFE3 % of 6.46%. Further, the “DQ Intensity” value in data set [3] (setting [6]) is 111.29. In addition, in data set [3] (setting [7]), the “DQ Spot” value is given as 104.60. The “Nuclear Count” value in data set [4] (PKIS2 primary screening) is 127.70. In data set [5] (PKIS2 primary screening), this compound returned a TFEB % of 4.51%.
With `Cc1ccc(CC(=O)N2CCc3cc(-c4cn(C)c5ncnc(N)c45)ccc32)cc1` [UNC10225490A], the AK in data set [1] (PKIS2 primary screening) amounted to 123.53. The TFE3 % in data set [2] (PKIS2 primary screening) was 14.69%. Also, in data set [3] (PKIS2 primary screening), the “DQ Intensity” value was determined as 104.55 and the “DQ Spot” value is listed as 111.62. Besides, the “Nuclear Count” value in data set [4] (PKIS2 primary screening) turned out to be 101.02. In data set [5] (PKIS2 primary screening), this compound had a TFEB % of 5.80%.
In turn, `O=C(Nc1cccc(-c2nn3ncccc3c2-c2ccnc(Nc3cccc(C(F)(F)F)c3)n2)c1)c1c(F)cccc1F` [UNC10225174A] yielded an AK in data set [1] (PKIS2 primary screening) of 107.72. This compound also displayed a TFE3 % in data set [2] (PKIS2 primary screening) of 11.86%. Besides, in data set [3] (PKIS2 primary screening), the “DQ Intensity” value is listed as 102.81 and the “DQ Spot” value is reported as 113.18. Moreover, the “Nuclear Count” value in data set [4] (PKIS2 primary screening) was determined as 93.11. This compound also registered a TFEB % in data set [5] (PKIS2 primary screening) of 2.89%.
The compound `Nc1nccc2scc(-c3ccc4c(c3)CCN4C(=O)Cc3cc(F)ccc3F)c12` [UNC10225494A] gave an AK in data set [1] (PKIS2 primary screening) of 74.58. In data set [2] (PKIS2 primary screening), the TFE3 % was 17.46%. The “DQ Intensity” value in data set [3] (setting [6]) is recorded as 123.47. The “DQ Spot” value in data set [3] (setting [7]) was determined as 108.12. Also, the “Nuclear Count” value in data set [4] (PKIS2 primary screening) turned out to be 97.20. The same compound showed a TFEB % in data set [5] (PKIS2 primary screening) of 3.18%.
`O=c1[nH]cc(-c2ccc(N3CCOCC3)cc2)c2sc(-c3cn[nH]c3)cc12` [UNC10225158A] returned an AK in data set [1] (PKIS2 primary screen) of 90.80. The compound further had a TFE3 % in data set [2] (PKIS2 primary screen) of 10.30%. In addition, in data set [3] (PKIS2 primary screen, DQ Red BSA intensity), the “DQ Intensity” value was found to be 68.86. The “DQ Spot” value in data set [3] (PKIS2 primary screen, DQ Red BSA spot count) is 89.34. Moreover, in data set [4] (PKIS2 primary screen), the “Nuclear Count” value worked out at 78.86. Besides, the TFEB % in data set [5] (PKIS2 primary screen) was determined as 7.60%.
Turning to `CC[C@@H]1CO[C@H](C(=O)Nc2ccccc2)CN1c1cc(-c2ccc3c(N)n[nH]c3c2)nc(NC)n1` [GSK2376236], in data set [1] (PKIS2 primary screening), the AK was 114.69. Further, the TFE3 % in data set [2] (PKIS2 primary screening) stood at 8.81%. For the same compound, the “DQ Intensity” value in data set [3] (setting [6]) is given as 102.90. Further, in data set [3] (setting [7]), the “DQ Spot” value was 87.99. In addition, the “Nuclear Count” value in data set [4] (PKIS2 primary screening) is on record as 121.19. The TFEB % in data set [5] (PKIS2 primary screening) is 3.52%.
In the case of `Cc1nn2c(=O)cc(N3CCOCC3)nc2n1Cc1cccc(Cl)c1Cl` [UNC10225178A], in data set [1] (PKIS2 primary screening), the AK was 116.91. In data set [2] (PKIS2 primary screening), this compound returned a TFE3 % of 28.29%. In data set [3] (PKIS2 primary screening), the “DQ Intensity” value amounted to 66.02 and the “DQ Spot” value is 117.74. In addition, in data set [4] (PKIS2 primary screening), the “Nuclear Count” value is given as 93.42. Besides, the TFEB % in data set [5] (PKIS2 primary screening) is listed as 7.97%.
`Cc1cc(N2CCC(NS(=O)(=O)c3ccc(F)cc3)CC2)nc(Nc2cccc(C#N)c2)n1` [GSK1653537]: in data set [1] (PKIS2 primary screening), the AK worked out at 183.29. In addition, the TFE3 % in data set [2] (PKIS2 primary screening) is listed as 18.21%. In data set [3] (setting [6]), the “DQ Intensity” value worked out at 104.60. For the same compound, the “DQ Spot” value in data set [3] (setting [7]) is 98.84. Further, the “Nuclear Count” value in data set [4] (PKIS2 primary screening) is reported as 84.44. In data set [5] (PKIS2 primary screening), this compound showed a TFEB % of 10.28%.
